In paper PMC12325182, “Discovery of novel and potent celastrol derivatives as PRDX1 inhibitors for cancer therapy through structure-based virtual screening” (Frontiers in Pharmacology, 2025):

Tests used:
Assay in all cases: Kinase selectivity assay
Format in all cases: biochemical
LYN = LYN (Homo sapiens, UniProt P07948); details: target LYN; read-out: CP1 IC50
Procedure: (§1) The selectivity of CP1 for PRDX1 was evaluated through kinase selectivity assays against other PRDX family members and a panel of kinases. The experiments were conducted by ICE Biosciences (Beijing, China).

ABL1 = molecular target: T1, ABL1 (Homo sapiens, UniProt P00519); details: target ABL1; read-out: CP1 IC50
T1 construct: ICE Biosciences (Beijing, China), ran the assays
Procedure: as §1

BMX = molecular target: T2, BMX (Homo sapiens, UniProt P51813); details: target BMX; read-out: CP1 IC50
T2 construct: ICE Biosciences (Beijing, China), ran the assays
T2 sequence (P51813 whole entry): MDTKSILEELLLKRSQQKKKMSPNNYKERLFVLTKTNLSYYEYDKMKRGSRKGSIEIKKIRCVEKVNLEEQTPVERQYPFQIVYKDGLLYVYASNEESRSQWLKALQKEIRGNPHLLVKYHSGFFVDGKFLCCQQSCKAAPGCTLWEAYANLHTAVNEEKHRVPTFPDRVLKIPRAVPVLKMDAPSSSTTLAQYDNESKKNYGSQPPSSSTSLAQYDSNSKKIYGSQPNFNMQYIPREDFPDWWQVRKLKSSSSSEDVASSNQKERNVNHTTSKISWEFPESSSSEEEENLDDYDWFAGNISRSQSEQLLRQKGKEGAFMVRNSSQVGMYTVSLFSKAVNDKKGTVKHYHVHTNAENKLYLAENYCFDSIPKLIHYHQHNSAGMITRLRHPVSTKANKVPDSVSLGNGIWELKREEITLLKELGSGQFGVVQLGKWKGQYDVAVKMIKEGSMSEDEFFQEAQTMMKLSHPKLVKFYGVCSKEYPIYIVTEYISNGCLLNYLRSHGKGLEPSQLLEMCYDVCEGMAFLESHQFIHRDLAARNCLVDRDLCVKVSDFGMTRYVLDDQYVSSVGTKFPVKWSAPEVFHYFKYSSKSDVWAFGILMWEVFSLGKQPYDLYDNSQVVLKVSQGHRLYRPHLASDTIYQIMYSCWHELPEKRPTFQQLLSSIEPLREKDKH
Procedure: as §1

FGFR2 = molecular target: T3, FGFR2 (Homo sapiens, UniProt P21802); details: target FGFR2; read-out: CP1 IC50
T3 construct: assay run by ICE Biosciences (Beijing, China)
Procedure: as §1

TXK = molecular target: T4, TXK (Homo sapiens, UniProt P42681); details: target TXK; read-out: CP1 IC50
T4 construct: ICE Biosciences (Beijing, China), a contract laboratory that ran the assay
Procedure: as §1

DDR1 = molecular target: T5, DDR1 (Homo sapiens, UniProt Q08345); details: target DDR1; read-out: CP1 IC50
T5 construct: ICE Biosciences (Beijing, China), ran the assays
Procedure: as §1

FRK = molecular target: T6, FRK (Homo sapiens, UniProt P42685); details: target FRK; read-out: CP1 IC50
T6 construct: assay run by ICE Biosciences (Beijing, China)
Procedure: as §1

PDGFRA = molecular target: T7, PDGFRA (Homo sapiens, UniProt P16234); details: target PDGFRA; read-out: CP1 IC50
T7 construct: assay run by ICE Biosciences (Beijing, China)
Procedure: as §1

FLT3 = molecular target: T8, FLT3 (Homo sapiens, UniProt P36888); details: target FLT3; read-out: CP1 IC50
T8 construct: assay run by ICE Biosciences (Beijing, China)
T8 sequence (P36888 27-993): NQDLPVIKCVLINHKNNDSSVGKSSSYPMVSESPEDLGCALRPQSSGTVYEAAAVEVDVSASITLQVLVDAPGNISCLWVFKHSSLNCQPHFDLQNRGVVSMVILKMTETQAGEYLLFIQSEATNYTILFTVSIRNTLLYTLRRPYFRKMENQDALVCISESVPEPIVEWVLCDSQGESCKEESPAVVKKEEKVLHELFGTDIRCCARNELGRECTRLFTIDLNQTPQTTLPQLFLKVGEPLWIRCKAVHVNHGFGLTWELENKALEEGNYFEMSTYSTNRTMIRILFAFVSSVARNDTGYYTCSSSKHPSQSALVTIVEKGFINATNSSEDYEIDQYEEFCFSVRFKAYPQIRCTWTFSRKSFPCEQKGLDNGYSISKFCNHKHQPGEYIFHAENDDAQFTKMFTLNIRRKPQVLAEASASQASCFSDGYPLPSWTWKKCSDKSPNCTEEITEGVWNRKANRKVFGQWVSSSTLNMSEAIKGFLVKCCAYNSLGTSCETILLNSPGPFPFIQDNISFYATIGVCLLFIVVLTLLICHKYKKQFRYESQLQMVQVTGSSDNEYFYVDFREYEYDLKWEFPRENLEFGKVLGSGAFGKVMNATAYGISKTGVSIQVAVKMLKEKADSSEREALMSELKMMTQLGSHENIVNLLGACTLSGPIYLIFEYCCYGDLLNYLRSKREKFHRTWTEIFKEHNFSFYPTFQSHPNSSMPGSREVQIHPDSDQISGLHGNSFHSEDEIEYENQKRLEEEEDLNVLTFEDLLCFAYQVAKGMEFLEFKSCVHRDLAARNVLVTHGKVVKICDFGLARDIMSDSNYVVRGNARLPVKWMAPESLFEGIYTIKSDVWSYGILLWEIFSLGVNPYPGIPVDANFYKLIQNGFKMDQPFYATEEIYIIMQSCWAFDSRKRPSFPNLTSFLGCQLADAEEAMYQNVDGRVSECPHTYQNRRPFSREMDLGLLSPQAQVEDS
Procedure: as §1

FGFR1 = molecular target: T9, FGFR1 (Homo sapiens, UniProt P11362); details: target FGFR1; read-out: CP1 IC50
T9 construct: assay run by ICE Biosciences (Beijing, China)
Procedure: as §1

TYRO3 = molecular target: T10, TYRO3 (Homo sapiens, UniProt Q06418); details: target TYRO3; read-out: CP1 IC50
T10 construct: ICE Biosciences (Beijing, China), a contract laboratory that ran the assay
Procedure: as §1

CSK = molecular target: T11, CSK (Homo sapiens, UniProt P41240); details: target CSK; read-out: CP1 IC50
T11 construct: ICE Biosciences (Beijing, China), ran the assays
T11 sequence (P41240 whole entry): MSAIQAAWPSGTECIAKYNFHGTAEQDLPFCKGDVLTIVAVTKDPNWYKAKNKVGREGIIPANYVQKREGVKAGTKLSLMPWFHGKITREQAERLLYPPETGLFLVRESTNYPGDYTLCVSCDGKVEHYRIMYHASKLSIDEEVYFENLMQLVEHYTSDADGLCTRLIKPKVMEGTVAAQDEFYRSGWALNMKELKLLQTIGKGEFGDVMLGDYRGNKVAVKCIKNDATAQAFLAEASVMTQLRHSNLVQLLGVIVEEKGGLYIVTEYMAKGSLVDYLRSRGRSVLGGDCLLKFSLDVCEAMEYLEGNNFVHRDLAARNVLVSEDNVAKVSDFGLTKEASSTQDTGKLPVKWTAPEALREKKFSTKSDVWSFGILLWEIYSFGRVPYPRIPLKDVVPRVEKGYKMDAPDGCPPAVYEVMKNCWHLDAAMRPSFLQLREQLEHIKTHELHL
Procedure: as §1

ZAP70 = molecular target: T12, ZAP70 (Homo sapiens, UniProt P43403); details: target ZAP70; read-out: CP1 IC50
T12 construct: ICE Biosciences (Beijing, China), a contract laboratory that ran the assay
Procedure: as §1

EPHA1 = molecular target: T13, EPHA1 (Homo sapiens, UniProt P21709); details: target EPHA1; read-out: CP1 IC50
T13 construct: ICE Biosciences (Beijing, China), ran the assays
T13 sequence (P21709 26-976): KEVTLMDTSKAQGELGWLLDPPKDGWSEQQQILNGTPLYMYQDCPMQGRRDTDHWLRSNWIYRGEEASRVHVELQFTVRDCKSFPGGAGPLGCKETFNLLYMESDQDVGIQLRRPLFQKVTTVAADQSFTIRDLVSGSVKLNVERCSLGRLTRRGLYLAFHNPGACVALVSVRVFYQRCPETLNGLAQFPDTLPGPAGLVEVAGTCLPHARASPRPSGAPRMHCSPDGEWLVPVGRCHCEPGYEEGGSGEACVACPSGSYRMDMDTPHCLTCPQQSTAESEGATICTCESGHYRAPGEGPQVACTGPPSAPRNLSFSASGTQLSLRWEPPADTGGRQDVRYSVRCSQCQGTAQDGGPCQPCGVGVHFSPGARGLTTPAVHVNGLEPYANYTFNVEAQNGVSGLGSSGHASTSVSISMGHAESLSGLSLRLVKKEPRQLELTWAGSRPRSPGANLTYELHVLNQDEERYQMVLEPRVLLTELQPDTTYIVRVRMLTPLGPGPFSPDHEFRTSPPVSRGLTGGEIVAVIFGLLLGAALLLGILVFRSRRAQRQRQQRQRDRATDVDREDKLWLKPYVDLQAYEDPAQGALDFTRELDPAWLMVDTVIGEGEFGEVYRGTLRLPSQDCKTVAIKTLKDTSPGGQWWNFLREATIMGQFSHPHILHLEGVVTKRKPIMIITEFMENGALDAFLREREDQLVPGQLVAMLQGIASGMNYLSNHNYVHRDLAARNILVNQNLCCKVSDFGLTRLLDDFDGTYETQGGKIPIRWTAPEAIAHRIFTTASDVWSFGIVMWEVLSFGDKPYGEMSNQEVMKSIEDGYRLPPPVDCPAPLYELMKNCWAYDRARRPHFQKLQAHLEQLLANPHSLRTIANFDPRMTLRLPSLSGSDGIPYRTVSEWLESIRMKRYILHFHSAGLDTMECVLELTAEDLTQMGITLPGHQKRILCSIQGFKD
Procedure: as §1

EPHA8 = EPHA8 (Homo sapiens, UniProt P29322); details: target EPHA8; read-out: CP1 IC50
Procedure: as §1

ALK = molecular target: T14, ALK (Homo sapiens, UniProt Q9UM73); details: target ALK; read-out: CP1 IC50
T14 construct: ICE Biosciences (Beijing, China), ran the assays
Procedure: as §1

PRDX5 = molecular target: T15, PRDX5 (Homo sapiens, UniProt P30044); details: target PRDX5; read-out: CP1 IC50
T15 construct: ICE Biosciences (Beijing, China), ran the assays
Procedure: as §1

KDR = KDR (Homo sapiens, UniProt P35968); details: target KDR; read-out: CP1 IC50
Procedure: as §1

ERBB4 = ERBB4 (Homo sapiens, UniProt Q15303); details: target ERBB4; read-out: CP1 IC50
Procedure: as §1

EPHB2 = EPHB2 (Homo sapiens, UniProt P29323); details: target EPHB2; read-out: CP1 IC50
Procedure: as §1

PTK2B = molecular target: T16, PTK2B (Homo sapiens, UniProt Q14289); details: target PTK2B; read-out: CP1 IC50
T16 construct: assay run by ICE Biosciences (Beijing, China)
Procedure: as §1

TYK2 = molecular target: T17, TYK2 (Homo sapiens, UniProt P29597); details: target TYK2; read-out: CP1 IC50
T17 construct: ICE Biosciences (Beijing, China), a contract laboratory that ran the assay
Procedure: as §1

TNK2 = molecular target: T18, TNK2 (Homo sapiens, UniProt Q07912); details: target TNK2; read-out: CP1 IC50
T18 construct: assay run by ICE Biosciences (Beijing, China)
Procedure: as §1

DDR2 = molecular target: T19, DDR2 (Homo sapiens, UniProt Q16832)
T19 construct: ICE Biosciences (Beijing, China), ran the assays
Procedure: as §1

NTRK3 = molecular target: T20, NTRK3 (Homo sapiens, UniProt Q16288)
T20 construct: assay run by ICE Biosciences (Beijing, China)
Procedure: as §1

EPHB1 = EPHB1 (Homo sapiens, UniProt P54762)
Procedure: as §1

SRMS = molecular target: T21, SRMS (Homo sapiens, UniProt Q9H3Y6); details: target SRMS; read-out: CP1 IC50
T21 construct: assay run by ICE Biosciences (Beijing, China)
Procedure: as §1

PRDX3 = molecular target: T22, PRDX3 (Homo sapiens, UniProt P30048); details: target PRDX3; read-out: CP1 IC50
T22 construct: ICE Biosciences (Beijing, China), ran the assays
T22 sequence (P30048 62-256): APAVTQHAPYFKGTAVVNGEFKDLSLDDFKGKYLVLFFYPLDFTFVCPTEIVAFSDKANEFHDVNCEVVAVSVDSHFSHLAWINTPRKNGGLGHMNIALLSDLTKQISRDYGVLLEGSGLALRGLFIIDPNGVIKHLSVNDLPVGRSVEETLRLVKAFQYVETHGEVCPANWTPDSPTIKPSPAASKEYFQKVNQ
Procedure: as §1

PRDX4 = molecular target: T23, PRDX4 (Homo sapiens, UniProt Q13162); details: target PRDX4; read-out: CP1 IC50
T23 construct: ICE Biosciences (Beijing, China), ran the assays
Procedure: as §1

MUSK = MUSK (Homo sapiens, UniProt O15146); details: target MUSK; read-out: CP1 IC50
MUSK, sequence (O15146 24-869): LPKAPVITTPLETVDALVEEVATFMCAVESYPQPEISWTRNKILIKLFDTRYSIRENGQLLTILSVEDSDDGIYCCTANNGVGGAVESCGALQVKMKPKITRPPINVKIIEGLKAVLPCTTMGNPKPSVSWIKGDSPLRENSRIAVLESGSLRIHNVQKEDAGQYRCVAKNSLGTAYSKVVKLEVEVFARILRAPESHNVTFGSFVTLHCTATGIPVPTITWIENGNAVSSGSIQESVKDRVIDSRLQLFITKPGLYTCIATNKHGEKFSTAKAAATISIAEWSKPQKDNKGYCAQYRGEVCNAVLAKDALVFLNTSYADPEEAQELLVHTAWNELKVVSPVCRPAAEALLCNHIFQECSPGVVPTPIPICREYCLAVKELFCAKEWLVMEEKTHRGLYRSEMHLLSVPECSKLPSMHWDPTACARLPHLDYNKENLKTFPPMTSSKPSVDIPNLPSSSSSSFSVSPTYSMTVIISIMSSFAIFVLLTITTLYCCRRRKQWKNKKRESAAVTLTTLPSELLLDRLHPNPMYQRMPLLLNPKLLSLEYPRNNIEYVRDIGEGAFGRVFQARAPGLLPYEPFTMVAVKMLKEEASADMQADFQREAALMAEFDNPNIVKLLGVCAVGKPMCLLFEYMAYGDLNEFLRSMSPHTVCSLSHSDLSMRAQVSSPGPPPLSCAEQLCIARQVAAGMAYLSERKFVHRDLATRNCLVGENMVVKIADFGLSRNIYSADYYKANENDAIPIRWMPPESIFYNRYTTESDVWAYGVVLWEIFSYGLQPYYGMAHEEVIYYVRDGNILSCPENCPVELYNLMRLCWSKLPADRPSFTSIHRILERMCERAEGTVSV
Procedure: as §1

KIT = KIT (Homo sapiens, UniProt P10721); details: target KIT; read-out: CP1 IC50
Procedure: as §1

PTK6 = molecular target: T24, PTK6 (Homo sapiens, UniProt Q13882); details: target PTK6; read-out: CP1 IC50
T24 construct: assay run by ICE Biosciences (Beijing, China)
T24 sequence (Q13882 whole entry): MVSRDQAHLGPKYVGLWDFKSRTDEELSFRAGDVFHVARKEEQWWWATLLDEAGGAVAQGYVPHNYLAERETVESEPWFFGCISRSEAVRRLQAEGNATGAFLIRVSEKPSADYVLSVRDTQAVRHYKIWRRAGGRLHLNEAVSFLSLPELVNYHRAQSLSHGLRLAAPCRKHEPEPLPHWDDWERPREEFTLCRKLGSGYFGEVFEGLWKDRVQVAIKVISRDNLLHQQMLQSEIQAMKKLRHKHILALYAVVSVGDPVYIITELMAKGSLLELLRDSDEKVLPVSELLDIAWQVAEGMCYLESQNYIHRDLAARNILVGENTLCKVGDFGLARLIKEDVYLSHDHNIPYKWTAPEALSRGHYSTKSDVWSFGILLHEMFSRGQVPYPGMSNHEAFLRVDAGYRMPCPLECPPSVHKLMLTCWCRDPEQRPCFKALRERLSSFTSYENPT
Procedure: as §1

FLT1 = molecular target: T25, FLT1 (Homo sapiens, UniProt P17948); details: target FLT1; read-out: CP1 IC50
T25 construct: assay run by ICE Biosciences (Beijing, China)
Procedure: as §1

PTK2 = molecular target: T26, PTK2 (Homo sapiens, UniProt Q05397); details: target PTK2; read-out: CP1 IC50
T26 construct: assay run by ICE Biosciences (Beijing, China)
Procedure: as §1

Measured: IC50

LYN, sequence (P07948 whole entry): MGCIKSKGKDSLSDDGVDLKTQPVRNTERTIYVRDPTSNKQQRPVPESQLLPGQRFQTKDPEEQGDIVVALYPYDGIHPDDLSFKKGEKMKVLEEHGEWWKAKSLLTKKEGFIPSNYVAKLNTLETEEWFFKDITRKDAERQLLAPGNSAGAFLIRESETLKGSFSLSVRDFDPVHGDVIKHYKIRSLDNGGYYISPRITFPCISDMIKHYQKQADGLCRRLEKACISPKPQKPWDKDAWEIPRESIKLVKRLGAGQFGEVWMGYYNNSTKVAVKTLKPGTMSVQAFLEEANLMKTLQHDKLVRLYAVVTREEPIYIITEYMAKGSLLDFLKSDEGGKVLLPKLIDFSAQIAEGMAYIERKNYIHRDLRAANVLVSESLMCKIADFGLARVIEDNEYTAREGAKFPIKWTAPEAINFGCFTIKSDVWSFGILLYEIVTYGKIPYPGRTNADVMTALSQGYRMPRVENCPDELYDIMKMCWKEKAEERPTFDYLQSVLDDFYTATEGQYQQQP

CC1=C(CC(=O)/C=C/c2cccc(CO)c2)C(=O)C=C2C1=CC=C1[C@@]2(C)CC[C@@]2(C)C3C[C@](C)(C(=O)CCc4nc(C(O)C(O)O)c(C)nc4C)CC[C@]3(C)CC[C@]12C (stereo partly shown) [CP1]
> 30 µM: all assays above
